Reference: patent US12508323B2, “Method of treatment of colorectal, breast and lung cancer with metal containing immune agonist complexes” (HANGZHOU XINGAO BIOTECHNOLOGY CO., LTD., priority 2020, dated 2025)

Assays:
Assay type in all cases: in vivo
[1] = test system: mice with localized cerebral ischemia; experiment: Local cerebral ischemia model (wire bolus method), Zea Longa 5-point behavioral score; details: ICR mice, 10 mg/kg i.p., Zea Longa 5-point scale (0 normal to 4)
Text: Healthy male ICR mice, weighing 18-20 g, were purchased from Shanghai Slaughter Laboratory Animal Co (quality certificate number (SCXK(SH) 2007-0005)) and raised in a cleaning experimental animal room.
Local cerebral ischemia model was made by wire bolus method to verify the therapeutic effects of immune agonist complexes on cerebral ischemic brain diseases in experimental animals.
Experimental mice were anesthetized with 10% chloral hydrate intraperitoneally, and a median cervical incision was made to separate and ligate the proximal segment of the right common carotid artery, the carotid artery and branch vessels thereof. The right internal carotid artery was isolated, the pterygopalatine artery was isolated downward along the internal carotid artery, and the root was ligated for this branch. The proximal end of the internal carotid was provided with a prepared wire, and the distal end of the internal carotid was provided with an artery clip. […] Behavioral scoring was performed after surgery, and the scoring was single-blinded with reference to the Zea Longa 5-point scale, which was scored as follows: 0, normal mice with no signs of neurological injury; 1, unable to fully extend the contralateral front paw; 2, turning in a circle to the outside; 3, relatively measured tipping; and 4, unable to walk spontaneously, and loss of consciousness injury. […]

TREM2 = TREM2 expression in brain tissues of AD mice; details: 10 mg/kg i.p., 60 days of administration
Text: ELISA kits were purchased from Cloud Clone. Flow cytometry nanobodies were purchased from eBiosciences. RT-PCR reagents were purchased from Takara. Immune fluorescence and immune histochemistry nanobodies were purchased from Abcam. Other reagents were purchased from Sigma-Aldrich. Primer synthesis was done by Shanghai Biotechnology Co. Laser confocal microscope was purchased from Leica (Germany). 7500 quantitative PCR instrument was purchased from Applied Biosystems ABI (USA). Light microscope was purchased from Leica (Germany). Enzyme marker was purchased from Hangzhou Aosheng Company. Attune flow cytometer was purchased from Thermo Fisher Scientific. RT-PCR in vitro TREM2 content was determined, and the TREM2 primer sequences were as follows:
Whether mRNA levels of TREM2 in brain tissues of mice were altered after administration of the immune agonist and complexes thereof was determined.

[2] = test system: APP/PS1 transgenic AD model mice; experiment: Morris water maze test in AD mice; details: 10 mg/kg i.p. once a day for 60 days, space exploration test
Method: APP/PS1 transgenic AD model mice were purchased from Southern Model Biotechnology Co., Ltd., which were 4 months in age, and 24-26 g in weight. […]
A circular pool was designed, which was 1 m in diameter, 50 cm in height, 30 cm deep, and white bottom. […] After the mice found the platform or could not find the platform within 90 seconds (the latency period was recorded as 90 seconds), they were guided to the platform by the experimenter and rested on the platform for 10 seconds before the next trial.
24 h after the end of the positioning navigation test, the platform was removed. Then the mice were put into the water from the third quadrant, and the swimming paths of the mice were recorded within 180 s. The residence time of the mice in the target quadrant (third quadrant) and the number of times they crossed the location of the original platform were recorded to observe the spatial orientation ability of the mice. […]

Nc1nc(=O)c2ncn(C3OC4COP(=O)(O)OC5C(COP(=O)(O)OC3C4O)OC(n3cnc4c(N)ncnc43)C5O)c2[nH]1 (stereo not shown) [cGAMP, 2′3′-cGAMP]
Behavioral scores (24 hours after surgery) [1]: 2.26 ± 0.40 | Behavioral scores (7 days after surgery) [1]: 1.65 ± 0.34 | TREM2 (TREM2): 55.38 ± 0.27 pg/mg | Percentage of time to cross the third quadrant platform in AD mice (%) [2]: 0.55 ± 0.10%
